Laboratory results as given in patent US20250268884A1, “Deuterated Domperidone for Treating Gastroparesis” (CinDome Pharma, Inc., priority 2022, published 2025).

Experiments:
clinical = conditions: human, plasma, oral
Procedure: The following PK parameters were calculated for deuterated domperidone from plasma concentrations (Day 1) using a noncompartmental method, if the data permitted: • Cmax determined directly from the concentration-time profile.
[formula] • λz calculated from a semi-logarithmic plot of the plasma concentration versus time curve. The parameter was calculated by linear least-squares regression analysis using points in the terminal logarithmic-linear phase; • T½ calculated as natural logarithm (2)/λz; • CL/F calculated as Dose/AUC0-∞; • Vz/F calculated as Dose/(λz×AUC0-∞); • Rcmax calculated as Cmax on Day 14/Cmax on Day 1; and • RAUC calculated as AUCtau on Day 14/AUCtau on Day 1.

[1] = system: adults with idiopathic or diabetic gastroparesis; assay: ANMS GCSI-DD total and subscale scores, protocol-specified scoring method, Phase 2a; type: in vivo, human; design: key to ANMS GCSI-DD total score, Day 14/EOT, mean / ANMS GCSI-DD nausea/vomiting subscale score, Day 14/EOT, mean / ANMS GCSI-DD postprandial fullness/early satiety subscale score, Day 14/EOT, mean / ANMS GCSI-DD bloating subscale score, Day 14/EOT, mean: symptoms rated 0 (none) to 4 (very severe)
Procedure: Subjects were Evaluated as Follows: • Days −28 to −11: Screening procedures were performed. The ANMS GCSI-DD questionnaire was completed daily for at least 14 days prior to randomization (Day 1); • Days −10 to −3: The ANMS GCSI-DD questionnaire was completed daily. A GEBT was performed on a single day within this window, with breath samples obtained twice prior to consumption of a standardized, carbon-13 (^13C)-enriched meal and then at 45, 90, 120, 150, 180, and 240 minutes after meal consumption after an 8-hour fast. […] On Day 14 (±2 days), the PAGI-SYM and Clinical Grading Assessment questionnaires were completed prior to the final dose of study drug. • A GEBT was administered 30 minutes after study drug administration on Day 14 (±2 days). Breath samples were obtained twice prior to ^13C-enriched meal consumption and then at 45, 90, 120, 150, 180, and 240 minutes after meal consumption after an 8-hour fast. If a subject withdrew from the study prior to the Day 14 (±2 days) GEBT, attempts should have been made to perform a GEBT on the last day of study drug administration. Clinical Grading Assessment Scales were also performed.
The ANMS GCSI-DD covers 5 core relevant symptoms of gastroparesis: nausea, early satiety, postprandial fullness, upper abdominal pain, and vomiting. Bloating is included as an exploratory symptom. Symptoms are rated on a severity numeric response scale from 0 (none) to 4 (very severe). Vomiting is captured on a frequency response scale and scored as follows: 0 for no episodes, 1 for 1 episode, 2 for 2 episodes, 3 for 3 episodes, and 4 for 4 or more episodes. Subjects were asked to recall symptoms over the previous 24 hours and complete the ANMS GCSI-DD patient-reported symptom questionnaire for at least 14 days prior to randomization, on the day of randomization, and daily from Days 1 to 14 (±2 days).

prolactin = assay: Prolactin concentration (pharmacodynamic evaluation), Phase 2a; type: in vivo, human; conditions: Safety Population
Excerpt: Table 14 summarizes prolactin concentration and change from baseline by scheduled time point and treatment for the Safety Population.

Molecule `[2H]c1c([2H])c([2H])c2c([nH]c(=O)n2CCCN2CCC(n3c(=O)[nH]c4cc(Cl)ccc43)CC2)c1[2H]` [Deudomperidone, 1-{3-[4-(5-chloro-2-oxo-2,3-dihydro-1H-1,3-benzodiazol-1-yl)piperidin-1yl]propyl}-2,3-dihydro(4,5,6,7-D4)-1H-1,3-benzodiazol-2-one] has a Tmax (clinical; 5 mg, Tmax, Day 1 (single dose), 5 mg BID, median, plasma deuterated domperidone) of 2 h, a Tmax (clinical; 5 mg, Tmax, Day 14 (steady state), 5 mg BID, median, plasma deuterated domperidone) of 2 h and a Tmax (clinical; 10 mg, Tmax, Day 1 (single dose), 10 mg BID, median, plasma deuterated domperidone) of 2 h. For the same molecule, the Tmax (clinical; 10 mg, Tmax, Day 14 (steady state), 10 mg BID, median, plasma deuterated domperidone) was 2 h, the Tmax (clinical; 20 mg, Tmax, Day 1 (single dose), 20 mg QD, median, plasma deuterated domperidone) was 2.5 h and the Tmax (clinical; 20 mg, Tmax, Day 14 (steady state), 20 mg QD, median, plasma deuterated domperidone) was 2 h. For the same molecule, the Tmax (clinical; median Tmax, across dose groups (5 mg BID, 10 mg BID, 20 mg QD), patients with gastroparesis) was 2 to 2.5 h, the “ANMS GCSI-DD bloating subscale score, Day 14/EOT, mean” value ([1]; 5 mg BID, Cohort 3, ITT) was 2.33 and the “ANMS GCSI-DD bloating subscale score, change from baseline to Day 14/EOT” value ([1]; 5 mg BID, Cohort 3, ITT) was −0.37. The “ANMS GCSI-DD bloating subscale score, percent change from baseline to Day 14/EOT” value ([1]; 5 mg BID, Cohort 3, ITT) was −16.16%, the “ANMS GCSI-DD nausea/vomiting subscale score, Day 14/EOT, mean” value ([1]; 5 mg BID, Cohort 3, ITT) was 1.00 and the “ANMS GCSI-DD nausea/vomiting subscale score, change from baseline to Day 14/EOT” value ([1]; 5 mg BID, Cohort 3, ITT) was −0.52. For the same molecule, the “ANMS GCSI-DD nausea/vomiting subscale score, percent change from baseline to Day 14/EOT” value ([1]; 5 mg BID, Cohort 3, ITT) was −41.08%, the “ANMS GCSI-DD postprandial fullness/early satiety subscale score, Day 14/EOT, mean” value ([1]; 5 mg BID, Cohort 3, ITT) was 2.00 and the “ANMS GCSI-DD postprandial fullness/early satiety subscale score, change from baseline to Day 14/EOT” value ([1]; 5 mg BID, Cohort 3, ITT) was −0.78. The “ANMS GCSI-DD postprandial fullness/early satiety subscale score, percent change from baseline to Day 14/EOT” value ([1]; 5 mg BID, Cohort 3, ITT) was −29.47%, the “ANMS GCSI-DD total score, Day 14/EOT, mean” value ([1]; 5 mg BID, Cohort 3, ITT) was 1.78 and the “ANMS GCSI-DD total score, change from baseline to Day 14/EOT” value (from here on “ANMS GCSI-DD total score, change”) ([1]; 5 mg BID, Cohort 3, ITT) was −0.56. The “ANMS GCSI-DD total score, percent change from baseline to Day 14/EOT” value (“ANMS GCSI-DD total score, percent change” for short) ([1]; 5 mg BID, Cohort 3, ITT) was −26.84%, the “ANMS GCSI-DD bloating subscale score, Day 14/EOT, mean” value ([1]; 10 mg BID, Cohort 1, ITT) was 1.76 and the “ANMS GCSI-DD bloating subscale score, change from baseline to Day 14/EOT” value ([1]; 10 mg BID, Cohort 1, ITT) was −1.08. The “ANMS GCSI-DD bloating subscale score, percent change from baseline to Day 14/EOT” value ([1]; 10 mg BID, Cohort 1, ITT) was −41.78%, the “ANMS GCSI-DD nausea/vomiting subscale score, Day 14/EOT, mean” value ([1]; 10 mg BID, Cohort 1, ITT) was 0.74 and the “ANMS GCSI-DD nausea/vomiting subscale score, change from baseline to Day 14/EOT” value ([1]; 10 mg BID, Cohort 1, ITT) was −0.89. For the same molecule, the “ANMS GCSI-DD nausea/vomiting subscale score, percent change from baseline to Day 14/EOT” value ([1]; 10 mg BID, Cohort 1, ITT) was −52.41%, the “ANMS GCSI-DD postprandial fullness/early satiety subscale score, Day 14/EOT, mean” value ([1]; 10 mg BID, Cohort 1, ITT) was 1.71 and the “ANMS GCSI-DD postprandial fullness/early satiety subscale score, change from baseline to Day 14/EOT” value ([1]; 10 mg BID, Cohort 1, ITT) was −1.16. The “ANMS GCSI-DD postprandial fullness/early satiety subscale score, percent change from baseline to Day 14/EOT” value ([1]; 10 mg BID, Cohort 1, ITT) was −41.38%, the “ANMS GCSI-DD total score, Day 14/EOT, mean” value ([1]; 10 mg BID, Cohort 1, ITT) was 1.40 and the “ANMS GCSI-DD total score, change” value ([1]; 10 mg BID, Cohort 1, ITT) was −1.04. For the same molecule, the “ANMS GCSI-DD total score, percent change” value ([1]; 10 mg BID, Cohort 1, ITT) was −43.64%, the “ANMS GCSI-DD bloating subscale score, Day 14/EOT, mean” value ([1]; 20 mg QD, Cohort 2, ITT) was 1.47 and the “ANMS GCSI-DD bloating subscale score, change from baseline to Day 14/EOT” value ([1]; 20 mg QD, Cohort 2, ITT) was −1.40. For the same molecule, the “ANMS GCSI-DD bloating subscale score, percent change from baseline to Day 14/EOT” value ([1]; 20 mg QD, Cohort 2, ITT) was −51.82%, the “ANMS GCSI-DD nausea/vomiting subscale score, Day 14/EOT, mean” value ([1]; 20 mg QD, Cohort 2, ITT) was 0.40 and the “ANMS GCSI-DD nausea/vomiting subscale score, change from baseline to Day 14/EOT” value ([1]; 20 mg QD, Cohort 2, ITT) was −1.20. The “ANMS GCSI-DD nausea/vomiting subscale score, percent change from baseline to Day 14/EOT” value ([1]; 20 mg QD, Cohort 2, ITT) was −67.94%, the “ANMS GCSI-DD postprandial fullness/early satiety subscale score, Day 14/EOT, mean” value ([1]; 20 mg QD, Cohort 2, ITT) was 1.37 and the “ANMS GCSI-DD postprandial fullness/early satiety subscale score, change from baseline to Day 14/EOT” value ([1]; 20 mg QD, Cohort 2, ITT) was −1.38. The “ANMS GCSI-DD postprandial fullness/early satiety subscale score, percent change from baseline to Day 14/EOT” value ([1]; 20 mg QD, Cohort 2, ITT) was −50.14%, the “ANMS GCSI-DD total score, Day 14/EOT, mean” value ([1]; 20 mg QD, Cohort 2, ITT) was 1.08 and the “ANMS GCSI-DD total score, change” value ([1]; 20 mg QD, Cohort 2, ITT) was −1.33. For the same molecule, the “ANMS GCSI-DD total score, percent change” value ([1]; 20 mg QD, Cohort 2, ITT) was −55.24%, the “ANMS GCSI-DD total score and all subscale scores at Day 14/End of Treatment” value ([1]; all deudomperidone treatment groups, placebo also decreased) was “decreased from baseline” and the “Prolactin, Day 3, mean (SD)” value (prolactin; 5 mg BID) was 396.7 (185.83) mIU/L. For the same molecule, the “Prolactin, Day 7, mean (SD)” value (prolactin; 5 mg BID) was 622.9 (317.61) mIU/L, the “Prolactin, Day 10, mean (SD)” value (prolactin; 5 mg BID) was 449.7 (147.64) mIU/L and the “Prolactin, Day 14, mean (SD)” value (prolactin; 5 mg BID) was 578.0 (205.82) mIU/L. The “Prolactin, change from baseline to Day 3, mean (SD)” value (prolactin; 5 mg BID) was 143.4 (124.58) mIU/L, the “Prolactin, change from baseline to Day 7, mean (SD)” value (prolactin; 5 mg BID) was 369.7 (263.19) mIU/L and the “Prolactin, change from baseline to Day 10, mean (SD)” value (prolactin; 5 mg BID) was 196.4 (99.96) mIU/L. The “Prolactin, change from baseline to Day 14, mean (SD)” value (prolactin; 5 mg BID) was 324.8 (187.12) mIU/L, the “Prolactin, Day 3, mean” value (prolactin; 10 mg BID) was 570.2 mIU/L and the “Prolactin, Day 7, mean” value (prolactin; 10 mg BID) was 640.0 mIU/L. The “Prolactin, Day 10, mean” value (prolactin; 10 mg BID) was 734.9 mIU/L, the “Prolactin, Day 14, mean” value (prolactin; 10 mg BID) was 774.2 mIU/L and the “Prolactin, change from baseline to Day 3” value (prolactin; 10 mg BID) was 351.5 mIU/L. The “Prolactin, change from baseline to Day 7” value (prolactin; 10 mg BID) was 421.2 mIU/L, the “Prolactin, change from baseline to Day 10” value (prolactin; 10 mg BID) was 512.1 mIU/L and the “Prolactin, change from baseline to Day 14” value (prolactin; 10 mg BID) was 555.5 mIU/L. The “Prolactin, change from baseline to follow-up/early termination” value (prolactin; 10 mg BID, n = 2) was −32.5 mIU/L, the “Prolactin, follow-up/early termination, mean” value (prolactin; 10 mg BID, n = 2) was 195.0 mIU/L and the “Prolactin, Day 3, mean” value (prolactin; 20 mg QD) was 830.5 mIU/L. The “Prolactin, Day 7, mean” value (prolactin; 20 mg QD) was 1219.5 mIU/L, the “Prolactin, Day 10, mean” value (prolactin; 20 mg QD) was 1264.1 mIU/L and the “Prolactin, Day 14, mean” value (prolactin; 20 mg QD) was 1251.9 mIU/L. For the same molecule, the “Prolactin, change from baseline to Day 3” value (prolactin; 20 mg QD) was 522.1 mIU/L, the “Prolactin, change from baseline to Day 7” value (prolactin; 20 mg QD) was 911.1 mIU/L and the “Prolactin, change from baseline to Day 10” value (prolactin; 20 mg QD) was 955.8 mIU/L. The “Prolactin, change from baseline to Day 14” value (prolactin; 20 mg QD) was 943.6 mIU/L.
